Test results from patent US11318118B1, “Methods and compositions for treating SARS-CoV-2 infection using carboxyamidotriazole orotate” (TACTICAL THERAPEUTICS INC., priority 2021, dated 2022).
Where two headings read alike, the source gives them in different places.

How the values were obtained:
plasma cytokines = assay: Luminex (Milliplex MAP Human Cytokine/Chemokine Magnetic Bead Panel) testing of plasma specimens from Phase I cancer patients given CTO; format: in vivo; design: key to VEGF plasma level / IL-15 plasma level / IL-17A plasma level / IL-1RA plasma level / IL-2 plasma level / IL-4 plasma level / IL-6 plasma level / IL-8 plasma level / IP-10 plasma level / MIP1a plasma level / RANTES plasma level / EGF plasma level / **IL-1β plasma level (second entry of the list) / **TNFα plasma level / GM-CSF plasma level / IFNγ plasma level / IL-1β plasma level (first entry of the list) / IL-12p40 plasma level / IL-12p70 plasma level / IL-13 plasma level: + increased; − decreased
Method: In a Phase I trial of CTO testing the safety and tolerability of CTO in cancer patients, Plasa samples were obtained from three patients after administration of different doses of CTO daily as follows: 1) NSCLC Patient 002-46 (CTO 555 mg/m2), 2) NSCLC Patient 002-50 (CTO 427 mg/m2) and 3) Ovarian Cancer Patient 002-53 (CTO 427 mg/m2) The levels of cytokines were measured by using the HCYTMAG-60K-PX30/Milliplex MAP Human Cytokine/Chemokine Magnetic Bead Panel from Milliplex, USA.
Table 1. Target Cytokines in Luminex Panel Testing of Plasma Specimens-Results
Expressed as Cytokine (+ increased) or (− decreased)

SARS-CoV-2 infection = format: in vivo; settings: one patient, CTO 600 mg daily oral, on the second day
SARS-CoV-2 = format: cell-based; settings: Vero E6 cells
[1] = system: non-infected Vero E6 cells; settings: read-out: EC 50 in non-infected Vero E6 cells; cell viability, Cell Titer Glo
[2] = CTO 427-555 mg/m2 daily, three cancer patients, versus baseline
[3] = CTO doses ranging from 427 mg/m2 to 555 mg/m2

## NC(=O)c1nnn(Cc2cc(Cl)c(C(=O)c3ccc(Cl)cc3)c(Cl)c2)c1N.O=C(O)c1cc(=O)[nH]c(=O)[nH]1 [CTO]
Plasma cytokines; [2]
  **IL-1β plasma level (second entry of the list): −
  **TNFα plasma level: −
  EGF plasma level: +
  GM-CSF plasma level: −
  IFNα2 plasma level: —I—
  IFNγ plasma level: −
  IL-1RA plasma level: −
  IL-1β plasma level (first entry of the list): +
  IL-2 plasma level: −
  IL-4 plasma level: −
  IL-6 plasma level: −
  IL-8 plasma level: −
  IL-12p40 plasma level: +
  IL-12p70 plasma level: −
  IL-13 plasma level: −
  IL-15 plasma level: −
  IL-17A plasma level: −
  IP-10 plasma level: −
  MIP1a plasma level: −
  RANTES plasma level: +
  VEGF plasma level: −
Plasma cytokines; [3]
  levels of cytokines including EGF, IFN α2, IL-1β, IL-12p40: increase
  levels of several cytokines including VEGF, GM-CSF, INF-γ, IL-2, IL-12p70, IL-13, IL-15, IL-17a, IL-1RA, IL-1α, IL-2, ILl-4, IL-6, IL-8, il-10, MIP1-α. IL-1 TNF-α: reduction
SARS-CoV-2 infection
  symptoms of SARS-CoV-2 infection: great improvement in most of the symptoms
SARS-CoV-2 infection; had lost twelve pounds within 14 days before
  body weight: remained at constant weight
SARS-CoV-2; 72 hours post-inoculation, read-out: IC50, CPE assay (highest dose tested)
  IC50: > 20 µM
SARS-CoV-2; CTO up to 5 μM
  replication of SARS-CoV-2: inhibited
SARS-CoV-2; FIG. 2, read-out: IC50, cytopathic effect (CPE) for SARS-CoV-2
  IC50: > 20 µM
SARS-CoV-2; recorded <20 μM concentration
  Maximum % Inhibition, CPE for SARS-CoV-2: 29.03%
[1]
  EC50: 14.9 µM
